Measurements: patent publication US20240226079A1, “TOPICAL ANAESTHETIC COMPOSITION HAVING IMPROVED VASOCONSTRICTOR STABILITY” (Animal Ethics Pty Ltd, priority 2021, published 2024)
Like-named read-outs stand apart in the source and are kept apart here.

Assay: Forced degradation studies of the drug substances
Source text: Table 4 summarises information on the relative chemical stability of the drug substances, obtained in forced degradation studies.

% Degradation	Compound	% Degradation (Acid, 8 Weeks)	% Degradation (Base, 8 Weeks)	% Degradation (Heat, 8 Weeks)	% Degradation (Light, 51 × 10^6 lux hrs)	% Degradation (Oxidation 1, 8 Weeks)	% Degradation (Oxidation 2, 8 Weeks)	% Degradation (Reduction, 8 Weeks)
51.6%	CNCC(O)c1ccc(O)c(O)c1 (stereo not shown) [Adrenaline]	–	–	–	–	–	–	–
11.2%	CCCCN1CCCCC1C(=O)Nc1c(C)cccc1C (stereo not shown) [Bupivacaine]	–	–	–	–	–	–	–
–	CCN(CC)CC(=O)Nc1c(C)cccc1C [Lignocaine]	−0.3%	1.1%	1.1%	9.9%	−0.2%	3.3%	−0.3%
–	Cetrimide	0.4%	0.9%	0.5%	8.9%	−0.2%	1.0%	8.4%
